Test results as given in ChEMBL document CHEMBL3400093, “Synthesis and biological evaluation of novel tyrosyl-DNA phosphodiesterase 1 inhibitors with a benzopentathiepine moiety” (Bioorg Med Chem, 2015).
The source made the active and inactive calls. No cut-off for these calls is given here.

How the values were obtained:
[1] = molecular target: Tyrosyl-DNA phosphodiesterase 1 (Homo sapiens, UniProt Q9NUW8); experiment: Inhibition of recombinant TDP1 (unknown origin) assessed as increase in fluorescence
MCF7 [2] = experiment: Induction of apoptosis in human MCF7 cells assessed as apoptotic DNA fragments at 100 uM after 72 hrs by DNA gel electrophoresis assay; assay type: functional, cell-based
MCF7 [3] = experiment: Cytotoxicity against human MCF7 cells assessed as reduction In cell number after 72 hrs by MTT assay; assay type: functional; settings: MCF7, 72 h
MCF7 [4] = experiment: Induction of apoptosis in human MCF7 cells assessed as P1 population at 200 uM after 48 hrs by annexin V-FITC/propidium iodide staining-based FACS flow cytometric analysis relative to control; assay type: functional
MCF7 [5] = experiment: Induction of apoptosis in human MCF7 cells assessed as P1 population at 100 uM after 24 hrs by annexin V-FITC/propidium iodide staining-based FACS flow cytometric analysis relative to control; assay type: functional
HepG2 [6] = experiment: Cytotoxicity against human HepG2 cells assessed as reduction In cell number after 72 hrs by MTT assay; assay type: functional; settings: HepG2, 72 h
MCF7 [7] = experiment: Induction of apoptosis in human MCF7 cells assessed as P1 population at 200 uM after 24 hrs by annexin V-FITC/propidium iodide staining-based FACS flow cytometric analysis relative to control; assay type: functional
HepG2 [8] = experiment: Cytotoxicity against human HepG2 cells assessed as condensation of nuclei, shrinkage of the cytoplasm, convolution of outlines, budding and formation of apoptotic bodies at 40 uM after 24 hrs by light microscopy; assay type: functional, cell-based
MCF7 [9] = experiment: Induction of apoptosis in human MCF7 cells assessed as P2 population at 100 uM after 48 hrs by annexin V-FITC/propidium iodide staining-based FACS flow cytometric analysis (reference value: 13.5%); assay type: functional
MCF7 [10] = experiment: Cytotoxicity against human MCF7 cells assessed as condensation of nuclei, shrinkage of the cytoplasm, convolution of outlines, budding and formation of apoptotic bodies at 200 uM after 24 hrs by light microscopy; assay type: functional, cell-based
HepG2 [11] = experiment: Cytotoxicity against human HepG2 cells assessed as condensation of nuclei, shrinkage of the cytoplasm, convolution of outlines, budding and formation of apoptotic bodies at 200 uM after 24 hrs by light microscopy; assay type: functional, cell-based
MCF7 [12] = experiment: Cytotoxicity against human MCF7 cells assessed as condensation of nuclei, shrinkage of the cytoplasm, convolution of outlines, budding and formation of apoptotic bodies at 40 uM after 24 hrs by light microscopy; assay type: functional, cell-based
MCF7 [13] = experiment: Induction of apoptosis in human MCF7 cells assessed as P2 population at 200 uM after 48 hrs by annexin V-FITC/propidium iodide staining-based FACS flow cytometric analysis (reference value: 13.5%); assay type: functional
MCF7 [14] = experiment: Induction of apoptosis in human MCF7 cells assessed as P1 population at 100 uM after 48 hrs by annexin V-FITC/propidium iodide staining-based FACS flow cytometric analysis relative to control; assay type: functional

Tyrosyl-DNA phosphodiesterase 1, sequence (Q9NUW8 whole entry, the tested form may be a part): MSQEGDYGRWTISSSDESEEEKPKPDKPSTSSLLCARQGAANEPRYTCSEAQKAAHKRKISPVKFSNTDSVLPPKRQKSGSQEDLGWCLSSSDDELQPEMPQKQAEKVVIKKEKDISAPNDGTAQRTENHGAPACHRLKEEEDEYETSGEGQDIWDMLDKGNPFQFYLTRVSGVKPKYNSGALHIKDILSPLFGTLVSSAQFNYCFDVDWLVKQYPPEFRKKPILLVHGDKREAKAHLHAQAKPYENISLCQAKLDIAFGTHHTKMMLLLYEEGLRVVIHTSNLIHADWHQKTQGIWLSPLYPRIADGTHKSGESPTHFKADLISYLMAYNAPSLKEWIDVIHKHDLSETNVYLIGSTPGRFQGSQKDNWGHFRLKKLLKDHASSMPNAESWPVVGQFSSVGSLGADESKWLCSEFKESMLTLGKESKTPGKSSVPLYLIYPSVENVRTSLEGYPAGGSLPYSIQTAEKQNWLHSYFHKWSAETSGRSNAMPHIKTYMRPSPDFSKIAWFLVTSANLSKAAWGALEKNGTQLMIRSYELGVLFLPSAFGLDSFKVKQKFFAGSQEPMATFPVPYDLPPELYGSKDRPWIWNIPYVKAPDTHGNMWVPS

IC50 [1]	Compound	Activity (MCF7 [2])	CC50 (MCF7 [3])	Activity (MCF7 [4])	Activity (MCF7 [7])	other results
> 10 µM	O=C(CN1CCCC1)Nc1ccccc1	–	–	–	–	–
> 10 µM	Nc1cc(C(F)(F)F)cc2c1SSSSS2	Active	14 µM	0.8%	0%	Activity (MCF7 [5]): 0%; CC50 (HepG2 [6]): 26.6 µM
> 10 µM	O=C(Nc1cc(C(F)(F)F)cc2c1SSSSS2)C(F)(F)F	Active	21 µM	20.1%	8.3%	inhibition (HepG2 [8]): Active; Activity (MCF7 [9]): 23%; inhibition (MCF7 [10]): Active; inhibition (HepG2 [11]): Active; inhibition (MCF7 [12]): Active; Activity (MCF7 [5]): 1.2%; Activity (MCF7 [13]): 33.6%; Activity (MCF7 [14]): 9.5%
1.28 µM	O=C(CN1CCCCC1)Nc1cc(C(F)(F)F)cc2c1SSSSS2	Active	19.3 µM	0.9%	0%	Activity (MCF7 [5]): 0%; CC50 (HepG2 [6]): 24.4 µM
0.22 µM	CCCCN(CCCC)CC(=O)Nc1cc(C(F)(F)F)cc2c1SSSSS2	Active	28.1 µM	10.5%	1.51%	CC50 (HepG2 [6]): > 100 µM
> 10 µM	O=C(CN1CCCCC1)Nc1ccccc1	–	–	–	–	–
1.62 µM	O=C(CN1CCOCC1)Nc1cc(C(F)(F)F)cc2c1SSSSS2	–	–	–	–	–
3.7 µM	O=C(CN1CCCC1)Nc1cc(C(F)(F)F)cc2c1SSSSS2	–	–	–	–	–
3.66 µM	O=C(CCN1CCCCC1)Nc1cc(C(F)(F)F)cc2c1SSSSS2	–	–	–	–	–
6.03 µM	O=C(CCN1CCCC1)Nc1cc(C(F)(F)F)cc2c1SSSSS2	–	–	–	–	–
1.3 µM	O=C(CCN1CCOCC1)Nc1cc(C(F)(F)F)cc2c1SSSSS2	–	–	–	–	–
